biological target: T1, human CB2 receptors (Homo sapiens, UniProt P34972); test: cAMP assay; assay type: cell-based; conditions: not given
T1 construct: expressed in transfected cells; host or cells: CHO cells
Protocol: CHO cells expressing human CB1 or CB2 receptors are seeded 17-24 hours prior to the experiment 50.000 cells per well in a black 96 well plate with flat clear bottom (Corning Costar #3904) in DMEM (Invitrogen No. 31331), 1×HT supplement, with 10% fetal calf serum and incubated at 5% CO2 and 37° C. in a humidified incubator. The growth medium was exchanged with Krebs Ringer Bicarbonate buffer with 1 mM IBMX and incubated at 30° C. for 30 min. Compounds were added to a final assay volume of 100 μl and incubated for 30 min at 30° C. Using the cAMP-Nano-TRF detection kit the assay (Roche Diagnostics) was stopped by the addition of 50 μl lysis reagent (Tris, NaCl, 1.5% Triton X100, 2.5% NP40, 10% NaN3) and 50 μl detection solutions ([…] mAb Alexa700-cAMP 1:[…] Ruthenium-2-AHA-cAMP) and shaken for 2 h at room temperature. The time-resolved energy transfer is measured by a TRF reader (Evotec Technologies GmbH), equipped with a ND:YAG laser as excitation source. The plate is measured twice with the excitation at 355 nm and at the emission with a delay of 100 ns and a gate of 100 ns, total exposure time 10 s at 730 (bandwidth 30 nm) or 645 nm (bandwidth 75 nm), respectively. The FRET signal is calculated as follows: FRET=T730-Alexa730-P(T645-B645) with P=Ru730-B730/Ru645-B645, where T730 is the test well measured at 730 nM, T645 is the test well measured at 645 nm, B730 and B645 are the buffer controls at 730 nm and 645 nm, respectively. cAMP content is determined from the function of a standard curve spanning from […] to 0.13 nM cAMP.
EC50 values were determined using Activity Base analysis (ID Business Solution, Limited).

T1 sequence (P34972 whole entry): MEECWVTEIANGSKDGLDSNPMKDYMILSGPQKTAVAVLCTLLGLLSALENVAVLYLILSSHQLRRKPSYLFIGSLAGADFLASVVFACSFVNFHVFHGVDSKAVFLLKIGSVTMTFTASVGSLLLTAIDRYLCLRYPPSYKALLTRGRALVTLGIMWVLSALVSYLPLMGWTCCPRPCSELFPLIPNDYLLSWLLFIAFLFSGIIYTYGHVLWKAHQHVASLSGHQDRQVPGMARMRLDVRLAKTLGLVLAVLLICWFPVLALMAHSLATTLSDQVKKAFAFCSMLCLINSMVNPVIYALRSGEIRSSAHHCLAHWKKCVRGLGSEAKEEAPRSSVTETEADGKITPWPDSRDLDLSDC

Compound | EC50 [nM]
NC(=O)[C@@H]1CC(F)(F)CN1C(=O)c1ccc(N2CCC(O)(C(F)(F)F)C2)c(OCC2CC2)n1 (stereo partly drawn) [Example 28, (2S)-1-[6-(Cyclopropylmethoxy)-5-[3-hydroxy-3-(trifluoromethyl)pyrrolidin-1-yl]pyridine-2-carbonyl]-4,4-difluoropyrrolidine-2-carboxamide] | 1680
NC(=O)CC1(NC(=O)c2ccc(N3CC(F)(C4CC4)C3)c(OCC3CC3)n2)COC1 [Example 38, N-[3-(2-Amino-2-oxoethyl)oxetan-3-yl]-5-(3-cyclopropyl-3-fluoroazetidin-1-yl)-6-(cyclopropylmethoxy)pyridine-2-carboxamide] | 48.3
CCC(CC)(NC(=O)c1ccc(OCC2CC2)c(-c2cccc(Cl)c2)n1)C(=O)NC [Example 7, 6-(3-Chlorophenyl)-5-(cyclopropylmethoxy)-N-[3-(methylcarbamoyl)pentan-3-yl]pyridine-2-carboxamide] | 51.3
NC(=O)CC1(NC(=O)c2ccc(N3CCC4(C3)CC4(F)F)c(OCC3CC3)n2)COC1 (centres unmarked) [Example 32, N-[3-(2-Amino-2-oxoethyl)oxetan-3-yl]-6-(cyclopropylmethoxy)-5-(2,2-difluoro-5-azaspiro[2.4]heptan-5-yl)pyridine-2-carboxamide] | 60.2
COC1CN(c2ccc(C(=O)N[C@@H](CC(C)C)C(N)=O)nc2OCC2CC2)C1 [Example 15, N-[(2S)-1-Amino-4-methyl-1-oxopentan-2-yl]-6-(cyclopropylmethoxy)-5-(3-methoxyazetidin-1-yl)pyridine-2-carboxamide] | 21.9
CCC(CC)(NC(=O)c1ccc(-c2ccccc2)c(OCC2CC2)n1)C(=O)NC [Example 6, 6-(Cyclopropylmethoxy)-N-[3-(methylcarbamoyl)pentan-3-yl]-5-phenylpyridine-2-carboxamide] | 831
CC(C)C[C@H](NC(=O)c1ccc(N2CC(F)(C3CC3)C2)c(OCC2CC2)n1)C(N)=O [Example 36, N-[(2S)-1-Amino-4-methyl-1-oxopentan-2-yl]-5-(3-cyclopropyl-3-fluoroazetidin-1-yl)-6-(cyclopropylmethoxy)pyridine-2-carboxamide] | 20
COC(=O)C(C)(C)NC(=O)c1ccc(-c2ccc(Cl)cc2)c(SC)n1 [Example 1, Methyl 2-[[5-(4-chlorophenyl)-6-methylsulfanylpyridine-2-carbonyl]amino]-2-methylpropanoate] | 344
CC(C)(NC(=O)c1ccc(N2CC3(COC3)C2)c(OCC2CC2)n1)c1nccs1 [Example 11, 6-(Cyclopropylmethoxy)-5-(2-oxa-6-azaspiro[3.3]heptan-6-yl)-N-[2-(1,3-thiazol-2-yl)propan-2-yl]pyridine-2-carboxamide] | 135

same assay, conditions: CHO cells expressing human CB2 receptors; read-out: cAMP assay human CB2 EC50

Compound | EC50 [nM]
COC1CN(c2ccc(C(=O)NC(C)(C)Cc3nnc(-c4ccc(F)cc4)o3)nc2OCC2CC2)C1 [Example 21, 6-(Cyclopropylmethoxy)-N-[1-[5-(4-fluorophenyl)-1,3,4-oxadiazol-2-yl]-2-methylpropan-2-yl]-5-(3-methoxyazetidin-1-yl)pyridine-2-carboxamide] | 853
CCC(CC)(NC(=O)c1ccc(N2CC(OC)C2)c(OCC2CC2)n1)C(=O)NCCCF [Example 27, 6-(Cyclopropylmethoxy)-N-[3-(3-fluoropropylcarbamoyl)pentan-3-yl]-5-(3-methoxyazetidin-1-yl)pyridine-2-carboxamide] | 444

From patent US20160376237A1, “NOVEL PYRIDINE DERIVATIVES” (Hoffmann-La Roche Inc., priority 2014, published 2016)
